# Data reported in US7138361B2, “Herbicidal heterocycles” (E. I. du Pont de Nemours and Company, priority 2000, dated 2006).
# Legend:
# Assay type in all cases: in vivo
# Sunflower = test: Test C preemergence; settings: Rate 500 g/ha, visual evaluation after 12 to 14 days
# Nightshade = test: Test C preemergence
# kochia (Kochia scoparia) [1] = test: Test C preemergence
# Summary of the method: (§1)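 Response scores (0 no effect to 100 complete control) came from visual comparison with untreated controls 12 to 14 days after treatment. Preemergence application was made to seeded soil; postemergence, to plants at the 1- to 4-leaf stage.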
# [2] = test system: common ragweed (Ambrosia elatior); test: Test C preemergence
# Summary of the method: as §1
# [3] = test system: cocklebur (Xanthium strumarium); test: Test C preemergence
# Summary of the method: as §1
# [4] = test system: pigweed (Amaranthus retroflexus); test: Test C postemergence
# Summary of the method: as §1
# [5] = test system: johnsongrass (Sorghum halepense); test: Test C postemergence
# Summary of the method: as §1
# corn (Zea mays) = test: Test C postemergence
# Summary of the method: as §1
# [6] = test system: velvetleaf (Abutilon theophrasti); test: Test C postemergence
# Summary of the method: as §1
# [7] = test system: bermudagrass (Cynodon dactylon); test: Test C postemergence
# Summary of the method: as §1
# [8] = test system: lambsquarters (Chenopodium album); test: Test C postemergence
# Summary of the method: as §1
# [9] = test system: crabgrass (Digitaria sanguinalis); test: Test C postemergence
# Summary of the method: as §1
# kochia (Kochia scoparia) [10] = test: Test C postemergence
# Summary of the method: as §1
# [11] = test system: woolly cupgrass (Eriochloa villosa); test: Test C postemergence
# Summary of the method: as §1
# soybean (Glycine max) = test: Test C postemergence
# Summary of the method: as §1
# [12] = test system: giant foxtail (Setaria faberii); test: Test C postemergence
# Summary of the method: as §1
# [13] = test system: yellow nutsedge (Cyperus esculentus); test: Test C postemergence
# Summary of the method: as §1
# [14] = test system: goosegrass (Eleusine indica); test: Test C postemergence
# Summary of the method: as §1
# [15] = test system: common ragweed (Ambrosia elatior); test: Test C postemergence; settings: Rate 500 g/ha, scale 0 to 100 (0 no effect, 100 complete control)
# Summary of the method: as §1
# [16] = test system: Surinam grass (Brachiaria decumbens); test: Test C postemergence
# Summary of the method: as §1
# [17] = test system: morningglory (Ipomoea hederacea); test: Test C postemergence
# Summary of the method: as §1
# [18] = test system: cocklebur (Xanthium strumarium); test: Test C postemergence
# Summary of the method: as §1
# [19] = Rate 125 g/ha, scale 0 to 100, 0 no effect, 100 complete control
# [20] = preemergence, Rate 62 g/ha, scale 0 to 100
# [21] = preemergence, Rate 500 g/ha, visual evaluation after 12 to 14 days
# [22] = preemergence, Rate 250 g/ha, scale 0 to 100, 0 no effect, 100 complete control
# [23] = Rate 250 g/ha, scale 0 to 100 (0 no effect, 100 complete control)
# [24] = Rate 500 g/ha, scale 0 to 100 (0 no effect, 100 complete control)
compound,measurement,setting,value
COc1cc(N2CCC(n3ccc(C(C)(C)C)n3)C2=O)ccc1Cl (stereo not shown) [Compound 117],"Plant response rating (0 to 100), Sunflower",Sunflower,65
same,"Plant response rating, Nightshade","Nightshade; Rate 62 g/ha, scale 0 to 100",100
same,"Plant response rating, Nightshade",Nightshade; [19],100
same,"Plant response rating, Nightshade","Nightshade; Rate 250 g/ha, scale 0 to 100, 0 no effect, 100 complete control",100
same,"Plant response rating, Kochia",kochia (Kochia scoparia) [1]; [19],100
same,"Plant response rating, Kochia",kochia (Kochia scoparia) [1]; [20],90
same,"Plant response rating (0 to 100), Kochia",kochia (Kochia scoparia) [1]; [21],100
same,"Plant response rating, Kochia",kochia (Kochia scoparia) [1]; [22],100
same,"Plant response rating, Ragweed, Common",[2]; [19],100
same,"Plant response rating, Ragweed, Common",[2]; [20],100
same,"Plant response rating (0 to 100), Ragweed, Common",[2]; [21],100
same,"Plant response rating, Ragweed, Common",[2]; [22],100
same,"Plant response rating, Cocklebur",[3]; [19],10
same,"Plant response rating, Cocklebur",[3]; [20],0
same,"Plant response rating (0 to 100), Cocklebur",[3]; [21],85
same,"Plant response rating, Cocklebur",[3]; [22],50
same,"Plant response rating, Pigweed","[4]; Rate 62 g/ha, scale 0 to 100",60
same,"Plant response rating, Pigweed",[4]; [23],90
same,"Plant response rating, Pigweed",[4]; [24],100
same,"Plant response rating, Johnsongrass","[5]; Rate 62 g/ha, scale 0 to 100",0
same,"Plant response rating, Johnsongrass",[5]; [23],0
same,"Plant response rating, Johnsongrass",[5]; [24],0
same,"Plant response rating, Johnsongrass","[5]; rate not given, scale 0 to 100",0
same,"Plant response rating, Corn","corn (Zea mays); Rate 62 g/ha, scale 0 to 100",0
same,"Plant response rating, Corn",corn (Zea mays); [23],0
same,"Plant response rating, Corn",corn (Zea mays); [24],10
same,"Plant response rating, Corn",corn (Zea mays); scale 0 to 100,0
same,"Plant response rating, Velvetleaf","[6]; Rate 62 g/ha, scale 0 to 100",20
same,"Plant response rating, Velvetleaf",[6]; [23],35
same,"Plant response rating, Velvetleaf",[6]; [24],60
same,"Plant response rating, Velvetleaf",[6]; scale 0 to 100,35
same,"Plant response rating, Bermudagrass","[7]; Rate 62 g/ha, scale 0 to 100",0
same,"Plant response rating, Bermudagrass",[7]; [19],50
same,"Plant response rating, Bermudagrass",[7]; [23],50
same,"Plant response rating, Bermudagrass",[7]; [24],95
same,"Plant response rating, Lambsquarters","[8]; Rate 62 g/ha, scale 0 to 100",75
same,"Plant response rating, Lambsquarters",[8]; [23],95
same,"Plant response rating, Lambsquarters",[8]; [24],100
same,"Plant response rating, Crabgrass","[9]; Rate 62 g/ha, scale 0 to 100",0
same,"Plant response rating, Crabgrass",[9]; [23],10
same,"Plant response rating, Crabgrass",[9]; [24],10
same,"Plant response rating, Kochia","kochia (Kochia scoparia) [10]; Rate 62 g/ha, scale 0 to 100",80
same,"Plant response rating, Kochia",kochia (Kochia scoparia) [10]; [23],85
same,"Plant response rating, Kochia",kochia (Kochia scoparia) [10]; [24],90
same,"Plant response rating, Cupgrass, Woolly","[11]; Rate 62 g/ha, scale 0 to 100",0
same,"Plant response rating, Cupgrass, Woolly",[11]; [23],40
same,"Plant response rating, Cupgrass, Woolly",[11]; [24],45
same,"Plant response rating, Soybean","soybean (Glycine max); Rate 62 g/ha, scale 0 to 100",50
same,"Plant response rating, Soybean",soybean (Glycine max); [23],85
same,"Plant response rating, Soybean",soybean (Glycine max); [24],90
same,"Plant response rating, Foxtail, Giant","[12]; Rate 62 g/ha, scale 0 to 100",0
same,"Plant response rating, Foxtail, Giant",[12]; [23],30
same,"Plant response rating, Foxtail, Giant",[12]; [24],60
same,"Plant response rating, Nutsedge","[13]; Rate 62 g/ha, scale 0 to 100",0
same,"Plant response rating, Nutsedge",[13]; [23],0
same,"Plant response rating, Nutsedge",[13]; [24],0
same,"Plant response rating, Goosegrass","[14]; Rate 62 g/ha, scale 0 to 100",10
same,"Plant response rating, Goosegrass",[14]; [23],70
same,"Plant response rating, Goosegrass",[14]; [24],100
same,"Plant response rating, Ragweed, Common",[15],90
same,"Plant response rating, Surinam grass","[16]; Rate 62 g/ha, scale 0 to 100",0
same,"Plant response rating, Surinam grass",[16]; [19],0
same,"Plant response rating, Surinam grass",[16]; [23],0
same,"Plant response rating, Surinam grass",[16]; [24],15
same,"Plant response rating, Morningglory","[17]; Rate 62 g/ha, scale 0 to 100",100
same,"Plant response rating, Morningglory",[17]; [23],100
same,"Plant response rating, Morningglory",[17]; [24],100
same,"Plant response rating, Cocklebur","[18]; Rate 62 g/ha, scale 0 to 100",0
same,"Plant response rating, Cocklebur",[18]; [23],85
same,"Plant response rating, Cocklebur",[18]; [24],100
